Assay results from patent US20250352654A1, “PHARMACEUTICAL AGENT CONJUGATES TO MODULATE MACROPHAGE AND INFLAMMATORY FUNCTIONS AND USES THEREOF” (REGENTS OF THE UNIVERSITY OF MINNESOTA, priority 2022, published 2025).
Where two headings read alike, the source gives them in different places. Bridge positions count the residues as written; N and C are the ends. Square brackets hold non-standard residues; d marks the D form. Ends that are not written are not given here. FAM = fluorescein amidite (fluorescein); Ahx = NCCCCCC(=O)O

Columns and labels:
inflamed lung = assay: CRV peptide homing in LPS-induced ALI mice (IHC/IF); format: in vivo, mouse; conditions: healthy (PBS) mice; FAM-labeled peptide i.v., 1 h; IHC and IF
Method: (A) Representative immunohistochemistry (IHC) images of targeting RXRB by CRV peptide in the lung of acute lung injury (ALI) mice. Control (PBS) or ALI (LPS-treated) mice were intravenously injected with FAM-labeled CRV or a control peptide (GGS) for 1 h homing, respectively. The lungs were collected for IHC analysis on whole-cell RXRB expression (left) and peptide amount (detected by anti-FITC antibody, right). (B) Quantification of FITC expression for FAM-labeled peptides in the lungs by IHC staining. (C) Representative immunofluorescence (IF) images of colocalization of rabbit anti-RXRB antibody with CD11b in PBS controls (top) and acute lung injury (ALI) mice (bottom). The lungs were collected for IF staining for the indicated markers after 6 h in vivo homing by intravenous injection of 25 mg of rabbit polyclonal RXRB antibodies in […] of PBS in mice. The mice receiving intratracheal injection of PBS served as healthy controls. All the animal experiments were performed in three mice per group. (D) Relative percentage of RXRB-positive cells in different tissues of ALI mice. […] The fluorescence intensity for CRV or GGS binding per cells was plotted in the histograms. […] (H) Quantification of RXRB in IHC sections from lungs of human subjects with ILD. […] FAM, carboxyfluorescein; FITC, fluorescein iso-thiocyanate; A.U., arbitrary units; MFI, mean fluorescence intensity; Neg, negative. […]

arthritic joints = assay: CRV accumulation in joints of K/BxN serum-transfer arthritis mice (IHC); format: in vivo, mouse; conditions: FAM peptide i.v., 1 hour
Method: (B) The arthritic mice were injected intravenously with a control peptide (GGS, top) or CRV (bottom). The mice were sacrificed after 1 hour and joints were collected for IHC staining.
FIGS. 7B-7D illustrates In vivo CRV peptide distribution in arthritic mouse models. (B) Scheme of synthesis of 64Cu-DOTA-CRV. (C) Representative immunohistochemistry (IHC) images of peptide accumulation in the tissues of collagen-induced-arthritis (CIA) mice with anti-FITC antibody for FAM-labeled CRV and FAM-GGS, upon intravenous injection for 1 h, respectively. Scale bars: 100 μm. (D) Representative IHC images of CRV-peptide and a control peptide (GGS) accumulation in the ankle joints of K/B×N serum-transfer arthritic mice at 1 h post intravenous injection as detected by FAM signals with anti-FITC antibody. Scale bar: 200 μm for 10× magnification; 100 μm for 20× magnification. All the animal experiments were performed in 3 mice per group. DOTA, 1,4,7,10-tetraazacyclododocane tetraacetic acid; FAM, carboxyfluorescein; FITC, fluorescein isothiocyanate.
To study the accumulation of CRV in inflamed joints, 100 μl of fluorescein (FAM)-CRV peptide solution (1 mg/ml in PBS) and the control peptide, GGS (SEQ ID NO: 2), was injected intravenously into mice with K/B×N serum-transfer arthritis (for a description of this mouse model, see VetPathol 52(5):819-26, 2015). […]

[1] = In vivo pharmacokinetics of PSL conjugates; conditions: male, C57BL/6, mouse, plasma, iv, healthy mice, 1 mg kg-1 equivalent dose of PSL
Method: FIG. 2U discloses mean plasma concentration-time curves of PSL following intravenous administration of free PSL, Cys-PSL and CRV-PSL with an equivalent PSL dosage at 1 mg kg^−1. All the animal experiments were performed in 3-4 mice per group. The data are presented as the mean±standard deviation (SD). Statistical significance was calculated using Student's t test. *P<0.05, **P<0.01, CRV-PSL vs free PSL group; #P<0.05, ##P<0.01, ###P<0.001 Cys-PSL vs free PSL group.
HPLC-MS/MS analysis was performed using the chromatographic system consisted of UltiMate™ 3000 RSLCnano System (Thermo Fisher Scientific) and a ZORBAX™ C18 column (5 μm, 150 mm 0.5 mm, Agilent, Santa Clara, CA). The mobile phase was a mixture of H2O/acetonitrile with a gradient elution (from 90:10 to 10:90 and return to 90:10, v/v) at a flow rate of 15 μl/min. The eluent was introduced directly into the electrospray source of a tandem quadrupole mass spectrometer (TSQ VANTAGE™, Thermo Fisher Scientific) that was operated in the positive mode. The spray voltage was set at 3000 V. The compounds were analyzed by multiple reaction monitoring (MRM) of the transitions of m/z (ESI+) 361.24→147.06 for PSL.
Healthy male C57BL/6 mice (8- to 9-weeks-old; body weight of 25-30 g) were deprived of food overnight with free access to water. […]
We first evaluated the plasma pharmacokinetics of CRV-PSL in healthy mice.

[2] = format: in vivo, mouse; conditions: for Thymus weight: mean; for Lymphocytes (count of total blood lymphocytes) / T cells (CD45+CD3+) count: normalized to the vehicle group
Method: (C and D) Flow-cytometry analysis of blood cell populations in mice with different treatment. The count of (C) blood lymphocytes and (D) T cells in mice receiving different treatment were normalized to the vehicle group. […] The weight of thymus was measured, and the blood was collected for flow cytometry 4 h after the third dose of treatment. All experiments were performed in 3-4 mice per group, and the experiment was repeated three times. Data shown are mean±SD. Student's t test was performed for statistical analysis. *p<0.05, **p<0.01, ***p<0.001.
The gating was started with choosing the live cells by plotting SSC-A vs. FSC-A. Single cells were then selected by plotting FSC-A vs. FSC-H for the live cells followed by subpopulation of CD45+ cells. The lymphocytes were selected by plotting CD45+ cells and SSC-A, which were then selected for T cells by CD3 staining. The tissues and the blood were collected 4 hours after the third dose of treatment. All experiments were performed in 3-4 mice per group and the experiment was repeated three times. The data are presented as the mean±standard deviation (SD). Statistical significance was calculated using Student's t test.
To identify subpopulations of myeloid cells, single cell suspensions were collected from the lung with a lung dissociation kit for mouse (Miltenyi Biotec, Auburn, CA) and other tissues, including blood and spleen, were collected for flow cytometry analysis. […] Flow cytometry analysis was performed on a BD Fortessa™ X-20 (BD Biosciences, East Rutherford, NJ). The data were analyzed with Flow JO™ software (Tree Star, San Carlos, CA).

4T1 breast cancer tumor = assay: Tumor accumulation of D-CRV and L-CRV after oral administration; format: in vivo, mouse; conditions: 4 hours, IF
Method: FAM-labeled L-CRV or D-CRV was orally administered to tumor-bearing mice.
To compare the in vivo distributions of the D-isoform of CRV (D-CRV) and the L-isoform of CRV (L-CRV), fluorescein (FAM) dye labeled D-CRV and L-CRV peptides were synthesized. 100 μL of peptide solution (5 mg/mL in PBS) was administered via oral gavage into mice bearing a 4T1 breast cancer tumor (for a description of how this mouse model is generated, see J Control Release 301:42-53, 2019) 4 hours before the tumors were collected. Peptide accumulation in the tumor was observed by immunofluorescence (IF) staining of FAM. We had previously shown that L-CRV homes to such tumors following intravenous injection. […] Additionally, (D)-CRV-DEX was first applied to RA mice model via subcutaneous administration with hydrogel. […] The pharmacokinetics (PK) and biodistribution at other time points will be further evaluated.

[3] = 0.1 or 1 mg kg-1 PSL equivalent

Compound: GGS: control peptide <FAM>-<Ahx>-GGSGGSKG (SEQ ID NO: 2) ({FAM-Ahx}-GGSGGSKG)
- peptide accumulation in the healthy lung (inflamed lung): little accumulation
- peptide accumulation in arthritic joints (arthritic joints): few FAM signals were detected

Compound: C[C@]12C=CC(=O)C=C1CC[C@@H]1[C@@H]2[C@@H](O)C[C@@]2(C)[C@H]1CC[C@]2(O)C(=O)CO [Free PSL, prednisolone]
- AUC(0-t) ([1]; mean (n = 3)): 41300 ng·h/mL
- half-life ([1]; mean ± SD (n = 3)): 3.78 ± 0.5 h
- Thymus weight ([2]; 0.1 mg kg-1 PSL equivalent i.v. every 2 days for 5 days): 36.3 mg
- Lymphocytes (count of total blood lymphocytes) ([2]; 0.1 mg kg-1 PSL equivalent): 0.45 fold changes
- T cells (CD45+CD3+) count ([2]; 0.1 mg kg-1 PSL equivalent): 0.47 fold changes
- Thymus weight ([2]; 1 mg kg-1 PSL equivalent i.v. every 2 days for 5 days): 28.3 mg
- Lymphocytes (count of total blood lymphocytes) ([2]; 1 mg kg-1 PSL equivalent): 0.27 fold changes
- T cells (CD45+CD3+) count ([2]; 1 mg kg-1 PSL equivalent): 0.40 fold changes
- apoptosis in the thymus and other organs (TUNEL) [2, 3]: increases the level of apoptosis mainly in the thymus
- counts of total lymphocytes and T subsets (in words) [2, 3]: reduced the counts of total lymphocytes and T subsets
- thymus weight (in words) ([2]; 0.1 or 1 mg kg-1 PSL equivalent i.v. every two days for five days): greatest reduction in thymus weight

Compound: D-CRV: D-isoform of CRV (SEQ ID NO: 52), fluorescein (FAM) dye labeled ([dC][dR][dV][dL][dR][dS]G[dS][dC]; disulfide 1-9 (inferred); also: FAM label, position not given here)
- peptide accumulation in the tumor (4T1 breast cancer tumor; FAM-labeled peptide, oral gavage 100 uL of 5 mg/mL): significant accumulation of CRV in the tumors
- colocalization with CD11b in the tumor (4T1 breast cancer tumor; oral gavage): colocalization with the myeloid cell marker CD11b in the tumor
